# Data as given in publication PMC9227305, “Photoinduced Synthesis of Methylated Marine Cyclopeptide Galaxamide Analogs with Isoindolinone as Anticancer Agents” (Marine Drugs, 2022).
# Read-outs that look alike come from different tables or passages of the source. *1 amine or outer side, *2 acyl side, *3 side chain or, on linkers, in order; H or OH if unused. Where a SMILES comes first, the peptide text is derived from it. [ ]: non-standard residue; d: D form. X1 = O=C1c2ccccc2[C@@](O)(CN(Cc2ccccc2)[*:1])N1CC(=O)[*:2]; NMeL = CN[C@@H](CC(C)C)C(=O)O
# Tests used:
# Format in all cases: cell-based, human
# HepG-2 cells [1] = assay: Intracellular Ca2+ level, Fluo-3 AM flow cytometry; conditions: 24 h treatment
# Excerpt: It has been clear that subtle changes in Ca^2+ concentration, such as intracellular calcium overload, can regulate and trigger apoptosis by inducing the production of mitochondrial trifunctional protein [24]. In this paper, we tried to study the influence of our prepared cyclic peptide on the intracellular calcium ion concentration. The cell-permeable fluorescent dye, Fluo-3 AM, is the most commonly used indicator to detect intracellular calcium ion concentration. […] Based on this principle, intracellular calcium ion concentrations can be detected by flow cytometry. In this paper, HepG-2 cells treated with solvent and the desired concentration of compound 8 for 24 h were collected and co-incubated with Fluo-3 AM. After loading, intracellular Ca^2+ levels were measured by flow cytometry.
# Cells incubated in 6-well plates were treated in a similar way as mentioned above, and then 100 µL of Fluo-3 AM (5 µM) was added and incubated for 1 h at 37 °C away from light. After rewashing the cells, the suspended precipitate in PBS was checked by flow cytometry (excitation at 488 nm and emission at 525 nm).
# HepG-2 cells [2] = assay: Mitochondrial membrane potential, rhodamine 123 flow cytometry; conditions: control 44.9%
# Method: A classical fluorescent dye, rhodamine 123, is selectively sequestered by active mitochondrial respiration, but is washed out in cells with decreased MMP, so that the dye fluorescence intensity reflects the level of mitochondrial activity and can be applied in the monitoring of MMP [23].
# In this study, we have studied the change of MMP of HepG-2 cells after treatment with different concentrations (0, 5.5, 11 and 22 µM within 48 h) and different time periods (12, 24 and 48 h with 11 µM) of compound 8. Cells were stained with rhodamine 123 and analyzed by flow cytometry. […] The aforementioned analysis clearly discloses that the cyclic peptides can affect the mitochondrial membrane potential and induce apoptosis, consistent with the findings in cell cycle analysis.
# Cells in the logarithmic phase were seeded in 6-well plates and incubated for 24 h. After refreshing the culture medium, different concentrations of compound 8 (0, 5.5, 11, 22 μM) were added and co-incubated for 48 h. Meanwhile, the cells were also treated with 11 μM of compound 8 within different time periods (12 h, 24 h, 48 h). Then, the cells were collected by trypsin digestion and washed with phosphate-buffered solution. After centrifuging (1000 r/min) for 5 min, the obtained cell precipitate was suspended in PBS (100 µL); then, 100 µL of rhodamine 123 (1 µM) was added and incubated for 20 min. The cells were centrifuged, resuspended in 600 µL PBS, and analyzed by flow cytometry (maximum excitation wavelength 507 and maximum emission wavelength 529 nm). At least 10,000 events were counted in the experiment.
# MDM2 = assay: Western blot of MDM2 level; conditions: HepG-2 cells, 48 h, increasing drug concentration
# Excerpt: (§1) The p53 tumor suppressor plays a key role in preventing tumor development. In cancers retaining wild-type p53, the function of p53 can be suppressed by a variety of factors, and the murine double minute 2 (MDM2) protein is an important endogenous cellular inhibitor of p53 [29]. Therefore, inhibiting or blocking MDM2 protein should be an efficient strategy for the development of an antitumor agent. Actually, various MDM2 inhibitors have been studied and screened in recent years, including small molecules and polypeptides. […] Considering that the isoindolinone fragment is always present in the structure of MDM2 inhibitors and plays an important role in binding to the target protein, we tried to detect the MDM2 and p53 protein levels by Western blotting to assess the inhibiting ability of cyclic peptides containing isoindolinone fragments to MDM2 oncoprotein.
# (§2) HepG-2 cells (5 × 10^6 cells) in the medium were treated with different concentrations of compounds for the required time and were washed twice with ice-cold PBS. The cells were scraped into cell lysate buffer containing phenylmethanesulfonyl fluoride (PMSF) and transferred to a 1.5 mL centrifuge tube, then lysed for 20 min at 4 °C. After centrifuging (12,000 r/min) for 20 min, the supernatant was collected and measured using the BCA Protein Assay Kit (Beyotime Biotechnology Co. Ltd., Shanghai, China)). […]
# HepG-2 cells [3] = conditions: 48 h; for Q4 cells (viable, lower left): human
# Method: HepG-2 cells were treated with 0, 5.5, 11 and 22 µM of compound 8 and incubated for 48 h, then double-stained carefully by membrane-linked protein Annexin-V-fluorescein isothiocyanate (FITC) and propidium iodide (PI) for flow cytometry analysis. Generally, in the early stages of apoptosis, phosphatidylserine flips from the inner cell membrane to the surface of the cell membrane. […] Propidium iodide (PI) is a nucleic acid dye that can only cross the membrane of advanced apoptosis and necrotic cells, reddening the nucleus. Therefore, when the drug-treated cells are double-stained by the two fluorescent dyes, early and late apoptosis and necrotic cells can be clearly distinguished.
# HepG-2 cells were seeded in a 6-well plate (2 × 10^5 cells per well). The different concentrations of compound 8 (0, 5.5, 11, 22 μg/mL) were added and incubated for 48 h to induce apoptosis. The collected cells were centrifuged (2000 r/min) for 5 min and resuspended in PBS (200 μL). Then, 5 μL of Annexin V-FITC was added and incubated for 10 min at room temperature away from light. Finally, 5 µL propidium iodide solution was added and incubated for 5 min away from light. The fluorescence intensity was detected by flow cytometry and analyzed by utilizing FlowJo_V10 software (FlowJo X 10.0.7r2, BD Biosciences, Franklin Lakes, NJ, USA).
# cytochrome C = assay: Western blot of cytochrome C in the cytosol; conditions: HepG-2 cells, increasing peptide concentrations, vs control
# Excerpt: Moreover, as mentioned previously and in others’ reports, the apoptosis of HepG-2 induced by galaxamide might be related to a mitochondria-mediated pathway. It has been known that with the decrease in the mitochondrial membrane potential, the cytochrome C in mitochondrion is released to the cytosol and can be detected. Therefore, we have also checked the content of cytochrome C in the cytosol by Western blotting to further verify the mitochondrial apoptotic pathway.
# as §2, with “China)). Protein samples were then electrophoresed on 12% SDS-polyacrylamide gels and transferred to polyvinylidene difluoride (PVDF) membranes. The membranes were then closed with 5% skim milk in Tris-buffered saline Tween 20 (TBST) (containing 50 mM Tris-HCl, 150 mM NaCl and 0.02% Tween-20) for 2 h.” for “China)).”
# p53 = assay: Western blot of p53 level; conditions: HepG-2 cells, 48 h, increasing drug concentration
# Excerpt: as §1, §2
compound,measurement,setting,value
"CC(C)C[C@@H]1NC(=O)CN2C(=O)c3ccccc3[C@@]2(O)CN(Cc2ccccc2)C(=O)[C@H](CC(C)C)NC(=O)[C@H](CC(C)C)N(C)C(=O)[C@H](CC(C)C)NC(=O)[C@H](CC(C)C)NC1=O [Compound 8, 3-Hydroxy-isoindolinone-cyclo-Gly-Leu-N-Me-Leu-Leu-Leu-Leu] (cyclo(LL[NMeL]L[X1]L))",Fluo-3 fluorescence intensity (intracellular Ca2+) relative to control group,HepG-2 cells [1],4.83 times
same,mean mitochondrial fluorescence intensity (rhodamine 123),"HepG-2 cells [2]; 5.5 µM, 48 h",27.1%
same,mean mitochondrial fluorescence intensity (rhodamine 123),"HepG-2 cells [2]; 11 µM, 12 h",29.4%
same,mean mitochondrial fluorescence intensity (rhodamine 123),"HepG-2 cells [2]; 11 µM, 24 h",24.3%
same,mean mitochondrial fluorescence intensity (rhodamine 123),"HepG-2 cells [2]; 11 µM, 48 h",20.2%
same,mean mitochondrial fluorescence intensity (rhodamine 123),"HepG-2 cells [2]; 22 µM, 48 h",14.3%
same,level of MDM2,MDM2,decreased gradually
same,Q3 cells (apoptosis cells),HepG-2 cells [3]; 22 μM,32.4%
same,"Q4 cells (viable, lower left)",HepG-2 cells [3]; 5.5 µM,86.2%
same,"Q4 cells (viable, lower left)",HepG-2 cells [3]; 11 µM,77.3%
same,"Q4 cells (viable, lower left)",HepG-2 cells [3]; 22 µM,65.4%
same,level of cytochrome C in the cytosol,cytochrome C,increased significantly
same,p53 protein expression,p53,increase
